Peptide text beside a SMILES is read from it.
Key:
FPR2 = target: T1, FPR2 (Homo sapiens, UniProt P25090); assay: Change in calcium activity by peptide (Fura-2) in RBL cells overexpressing FPR2; type: cell-based; settings: calcium activity (Fura-2), graded per Table 3, read-out: EC50 for [Ca^2+] FPR2
T1 construct: expressed in transfected cells; host or cells: RBL cells (RBL-FPR2)
T1 sequence (P25090 1-351): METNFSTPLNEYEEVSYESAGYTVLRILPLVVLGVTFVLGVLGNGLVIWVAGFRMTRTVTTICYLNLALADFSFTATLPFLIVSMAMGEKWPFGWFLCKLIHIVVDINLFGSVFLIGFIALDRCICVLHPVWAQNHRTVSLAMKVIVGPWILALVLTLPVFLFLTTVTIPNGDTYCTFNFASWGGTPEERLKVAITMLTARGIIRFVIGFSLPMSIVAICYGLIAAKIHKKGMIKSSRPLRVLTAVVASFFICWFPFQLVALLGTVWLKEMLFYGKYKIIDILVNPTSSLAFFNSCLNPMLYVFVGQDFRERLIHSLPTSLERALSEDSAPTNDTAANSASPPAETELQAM
In short: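 Peptide-induced intracellular calcium change measured by Fura-2 fluorescence on a plate reader. Cells: RBL line overexpressing FPR2, dye-loaded 1 h at 37 °C then 30 min at RT in dark; peptides from 0.5 mM water/50% DMSO stocks, diluted in HBSS with 20 mM HEPES.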

FPR1 = target: T2, FPR1 (Homo sapiens, UniProt P21462); assay: Change in calcium activity by peptide, FPR1 activation effect; type: cell-based; settings: calcium activity (Fura-2), graded per Table 3, read-out: EC50 for [Ca^2+] FPR1
T2 sequence (P21462 1-350): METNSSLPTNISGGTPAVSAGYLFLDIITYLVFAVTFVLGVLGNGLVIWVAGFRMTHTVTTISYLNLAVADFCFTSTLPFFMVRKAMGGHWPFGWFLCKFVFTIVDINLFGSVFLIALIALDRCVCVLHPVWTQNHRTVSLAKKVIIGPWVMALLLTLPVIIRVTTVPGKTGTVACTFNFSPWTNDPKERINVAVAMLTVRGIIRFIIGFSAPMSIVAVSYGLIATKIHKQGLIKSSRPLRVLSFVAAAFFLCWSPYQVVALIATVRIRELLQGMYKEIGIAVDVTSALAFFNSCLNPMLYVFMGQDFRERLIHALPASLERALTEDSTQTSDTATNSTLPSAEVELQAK
In short: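 Calcium flux induced by peptide addition was monitored on a FlexStation 3 plate reader. Before this, cells seeded a day earlier (3×10^5/well) took up the Fura-2 dye for 1 h at 37 °C plus 30 min dark at room temperature.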

SMILES | EC50 (FPR2) | EC50 (FPR1)
CSCC[C@@H](NC(=O)[C@@H]1CCCN1C(=O)[C@H](CCCCN)NC(=O)[C@H](Cc1ccc(O)cc1)NC(=O)[C@H](CCCCN)NC(=O)[C@@H](N)Cc1c[nH]cn1)C(N)=O [Peptide 146] (HELM PEPTIDE1{H.K.Y.K.P.[dM].[am]}$$$$V2.0) | < 10 nM | > 10000 nM
CSCC[C@@H](NC(=O)[C@@H](NC(=O)[C@H](CCCCN)NC(=O)[C@H](Cc1ccc(O)cc1)NC(=O)[C@H](CCCCN)NC(=O)[C@@H]1CCCN1)C(C)C)C(N)=O [Peptide 138] (HELM PEPTIDE1{P.K.Y.K.V.[dM].[am]}$$$$V2.0) | < 10 nM | > 10000 nM
CSCC[C@@H](NC(=O)[C@@H](NC(=O)[C@H](CC(N)=O)NC(=O)[C@H](Cc1ccc(O)cc1)NC(=O)[C@H](CCCNC(=N)N)NC(=O)[C@H](Cc1c[nH]c2ccccc12)NC(=O)[C@@H](N)CCCNC(=N)N)C(C)C)C(N)=O [Peptide 159] (HELM PEPTIDE1{R.W.R.Y.N.V.[dM].[am]}$$$$V2.0) | 11 to 100 nM | 1000 to 10000 nM
CC[C@H](C)[C@H](NC(C)=O)C(=O)N[C@@H](CCCCN)C(=O)N[C@@H](Cc1ccc(O)cc1)C(=O)N[C@@H](CCCCN)C(=O)N1CCC[C@H]1C(=O)N[C@H](CCSC)C(N)=O [Peptide 143] (HELM PEPTIDE1{[ac].I.K.Y.K.P.[dM].[am]}$$$$V2.0) | < 10 nM | > 10000 nM
CCCC(=O)N[C@@H](CCCCN)C(=O)N[C@@H](CCSC)C(=O)N[C@@H](CCCCN)C(=O)N[C@@H](Cc1ccc(O)cc1)C(=O)N[C@@H](CCCCN)C(=O)N[C@H](C(=O)N[C@H](CCSC)C(N)=O)C(C)C [Peptide 11] (HELM PEPTIDE1{[CCCC(=O)[*:2]].K.M.K.Y.K.V.[dM].[am]}$$$$V2.0) | < 10 nM | > 10000 nM
CC[C@H](C)[C@H](N)C(=O)N[C@@H](CCCCN)C(=O)N[C@@H](Cc1ccccc1)C(=O)N[C@@H](CCCCN)C(=O)N[C@@H](Cc1ccc(O)cc1)C(=O)N[C@H](CCSC)C(N)=O [Peptide 131] (HELM PEPTIDE1{I.K.F.K.Y.[dM].[am]}$$$$V2.0) | 11 to 100 nM | > 10000 nM
CSCC[C@H](NC(C)=O)C(=O)N[C@@H](CCCNC(=N)N)C(=O)N[C@@H](Cc1ccc(O)cc1)C(=O)N[C@@H](CCCNC(=N)N)C(=O)N[C@@H](Cc1ccc(O)cc1)C(=O)N[C@H](CCSC)C(N)=O [Peptide 49] (HELM PEPTIDE1{[ac].M.R.Y.R.Y.[dM].[am]}$$$$V2.0) | 11 to 100 nM | > 10000 nM
CC[C@H](C)[C@H](NC(=O)[C@H](CCCNC(=N)N)NC(=O)[C@H](Cc1ccc(O)cc1)NC(=O)[C@H](CCCNC(=N)N)NC(=O)[C@H](Cc1c[nH]c2ccccc12)NC(=O)[C@@H](N)CCCNC(=N)N)C(=O)N[C@H](CCSC)C(N)=O [Peptide 152] (HELM PEPTIDE1{R.W.R.Y.R.I.[dM].[am]}$$$$V2.0) | 11 to 100 nM | > 10000 nM
CSCC[C@H](N)C(=O)N[C@@H](CCCNC(=N)N)C(=O)N[C@@H](Cc1ccc(O)cc1)C(=O)N[C@@H](Cc1ccc(O)cc1)C(=O)N1CCC[C@H]1C(=O)N[C@H](CCSC)C(N)=O [Peptide 120] (HELM PEPTIDE1{M.R.Y.Y.P.[dM].[am]}$$$$V2.0) | < 10 nM | 101 to 1000 nM
CSCC[C@H](NC(=O)[C@H](Cc1c[nH]cn1)NC(C)=O)C(=O)N[C@@H](CCCNC(=N)N)C(=O)N[C@@H](Cc1ccc(O)cc1)C(=O)N[C@@H](CCCCN)C(=O)N1CCC[C@H]1C(=O)N[C@H](CCSC)C(N)=O [Peptide 59] (HELM PEPTIDE1{[ac].H.M.R.Y.K.P.[dM].[am]}$$$$V2.0) | < 10 nM | > 10000 nM
CSCC[C@H](NC(=O)[C@H](Cc1c[nH]cn1)NC(C)=O)C(=O)N[C@@H](CCCCN)C(=O)N[C@@H](Cc1ccc(O)cc1)C(=O)N[C@@H](CCCCN)C(=O)N[C@H](C(=O)N[C@H](CCSC)C(N)=O)C(C)C [Peptide 22] (HELM PEPTIDE1{[ac].H.M.K.Y.K.V.[dM].[am]}$$$$V2.0) | < 10 nM | > 10000 nM
CSCC[C@H](NC(=O)[C@H](CCCNC(=N)N)NC(C)=O)C(=O)N[C@@H](CCCNC(=N)N)C(=O)N[C@@H](Cc1ccc(O)cc1)C(=O)N[C@@H](Cc1c[nH]c2ccccc12)C(=O)N1CCC[C@H]1C(=O)N[C@H](CCSC)C(N)=O [Peptide 107] (HELM PEPTIDE1{[ac].R.M.R.Y.W.P.[dM].[am]}$$$$V2.0) | < 10 nM | 101 to 1000 nM
CCCC(=O)N[C@@H](CCCNC(=N)N)C(=O)N[C@@H](CCSC)C(=O)N[C@@H](CCCNC(=N)N)C(=O)N[C@@H](Cc1ccc(O)cc1)C(=O)N[C@@H](Cc1c[nH]c2ccccc12)C(=O)N[C@@H](Cc1ccc(O)cc1)C(=O)N[C@H](CCSC)C(N)=O [Peptide 83] (HELM PEPTIDE1{[CCCC(=O)[*:2]].R.M.R.Y.W.Y.[dM].[am]}$$$$V2.0) | < 10 nM | > 10000 nM
CC[C@H](C)[C@H](N)C(=O)N[C@@H](CCCCN)C(=O)N[C@@H](Cc1ccccc1)C(=O)N[C@@H](CCCCN)C(=O)N1CCC[C@H]1C(=O)N[C@H](CCSC)C(N)=O [Peptide 133] (HELM PEPTIDE1{I.K.F.K.P.[dM].[am]}$$$$V2.0) | < 10 nM | > 10000 nM
CSCC[C@H](NC(=O)[C@@H](N)CCCNC(=N)N)C(=O)N[C@@H](CCCNC(=N)N)C(=O)N[C@@H](Cc1ccc(O)cc1)C(=O)N[C@@H](Cc1ccc(O)cc1)C(=O)N[C@H](C(=O)N[C@H](CCSC)C(N)=O)C(C)C [Peptide 97] (HELM PEPTIDE1{R.M.R.Y.Y.V.[dM].[am]}$$$$V2.0) | < 10 nM | 1000 to 10000 nM
CCCC(=O)N[C@@H](CCCNC(=N)N)C(=O)N[C@@H](CCSC)C(=O)N[C@@H](CCCNC(=N)N)C(=O)N[C@@H](Cc1ccc(O)cc1)C(=O)N[C@@H](CCCCN)C(=O)N[C@H](C(=O)N[C@H](CCSC)C(N)=O)C(C)C [Peptide 7] (HELM PEPTIDE1{[CCCC(=O)[*:2]].R.M.R.Y.K.V.[dM].[am]}$$$$V2.0) | < 10 nM | > 10000 nM
CSCC[C@H](NC(=O)[C@@H]1CCCN1C(C)=O)C(=O)N[C@@H](CCCNC(=N)N)C(=O)N[C@@H](Cc1ccc(O)cc1)C(=O)N[C@@H](CCCCN)C(=O)N1CCC[C@H]1C(=O)N[C@H](CCSC)C(N)=O [Peptide 63] (HELM PEPTIDE1{[ac].P.M.R.Y.K.P.[dM].[am]}$$$$V2.0) | < 10 nM | > 10000 nM
CCCCCCCC(=O)N[C@@H](CCSC)C(=O)N[C@@H](CCCNC(=N)N)C(=O)N[C@@H](Cc1ccc(O)cc1)C(=O)N[C@@H](CCCCN)C(=O)N[C@H](C(=O)N[C@H](CCSC)C(N)=O)C(C)C [Peptide 16] (HELM PEPTIDE1{[CCCCCCCC(=O)[*:2]].M.R.Y.K.V.[dM].[am]}$$$$V2.0) | 11 to 100 nM | > 10000 nM
CSCC[C@H](N)C(=O)N[C@@H](CCCNC(=N)N)C(=O)N[C@@H](Cc1ccc(O)cc1)C(=O)N[C@@H](CCCCN)C(=O)N[C@H](C(=O)N[C@H](CCSC)C(N)=O)C(C)C [Peptide 13] (HELM PEPTIDE1{M.R.Y.K.V.[dM].[am]}$$$$V2.0) | < 10 nM | > 10000 nM
CCCC(=O)N[C@@H](Cc1c[nH]cn1)C(=O)N[C@@H](CCSC)C(=O)N[C@@H](CCCCN)C(=O)N[C@@H](Cc1ccc(O)cc1)C(=O)N[C@@H](Cc1ccc(O)cc1)C(=O)N[C@@H](Cc1ccc(O)cc1)C(=O)N[C@H](CCSC)C(N)=O [Peptide 127] (HELM PEPTIDE1{[CCCC(=O)[*:2]].H.M.K.Y.Y.Y.[dM].[am]}$$$$V2.0) | < 10 nM | > 10000 nM
CSCC[C@@H](NC(=O)[C@@H](NC(=O)[C@H](CCCCN)NC(=O)[C@H](Cc1ccc(O)cc1)NC(=O)[C@H](CCCNC(=N)N)NC(=O)[C@H](Cc1c[nH]c2ccccc12)NC(=O)[C@@H](N)CCCNC(=N)N)C(C)C)C(N)=O [Peptide 1] (HELM PEPTIDE1{R.W.R.Y.K.V.[dM].[am]}$$$$V2.0) | < 10 nM | > 10000 nM
CCCCCCCC(=O)N[C@H](C(=O)N[C@@H](CCCCN)C(=O)N[C@@H](Cc1ccc(O)cc1)C(=O)N[C@@H](CCCCN)C(=O)N[C@H](C(=O)N[C@H](CCSC)C(N)=O)C(C)C)[C@@H](C)CC [Peptide 137] (HELM PEPTIDE1{[CCCCCCCC(=O)[*:2]].I.K.Y.K.V.[dM].[am]}$$$$V2.0) | < 10 nM | 1000 to 10000 nM
CSCC[C@@H](NC(=O)[C@@H]1CCCN1C(=O)[C@H](Cc1ccc(O)cc1)NC(=O)[C@H](Cc1ccc(O)cc1)NC(=O)[C@H](CCCNC(=N)N)NC(=O)[C@H](Cc1c[nH]c2ccccc12)NC(=O)[C@H](CCCNC(=N)N)NC(C)=O)C(N)=O [Peptide 121] (HELM PEPTIDE1{[ac].R.W.R.Y.Y.P.[dM].[am]}$$$$V2.0) | < 10 nM | 101 to 1000 nM
